Measurements published in patent US11708283B2, “Metal-chelating compositions and their use in methods of removing or inhibiting barium scale” (CORNELL UNIVERSITY, priority 2018, dated 2023).
Where two headings read alike, the source gives them in different places.

Columns and labels:
[1] = Thermodynamic stability constants of Ca^2+ complexes by pH-potentiometry; type: binding; details: I = 0.1M KCl; for pCa (−log [M^2+]free): [M^2+] = 10^−6M, [L] = 10^−5M, pH 7.4; for pCa (−log [M^2+]free) / log KCaHL / log KCaL: 25° C.; for log K′Ca (conditional stability constant): pH 7.4, 25° C., calculated from protonation and stability constants; for log KCaHL / log KCaL: pH-potentiometry
Description: Potentiometric measurements were carried out using a titrator equipped with a combination electrode and an exchange unit with an automatic burette (10 mL). The titration vessel was fitted with a removable glass cell (˜70 mL) and was thermostated at 25° C. using a circulating water bath. CO2 was excluded from the vessel prior to and during the titrations using a small positive pressure of Ar that was passed through a solution of 30 wt % KOH. Carbonate-free KOH (˜0.1 M) was prepared by dissolving KOH pellets (semiconductor grade, 99.99% trace metals basis) in freshly boiled water (≥18 MΩ-cm) and was standardized by potentiometric titration against potassium hydrogen phthalate. Hydrochloric acid (0.1 M) was standardized against freshly prepared KOH. Titration solutions were maintained at a constant ionic strength of 0.1 M using KCl (≥99.5%) and were equilibrated for 15 minutes prior to the addition of titrant. Before every titration, the electrode was calibrated in terms of hydrogen ion concentration by titrating a solution of standardized HCl (5 mM) containing supporting electrolyte (95 mM) with standardized KOH (2 mL). Data within the pH ranges of 2.5-3.2 and 10.8-11.2 were analyzed using software to obtain the standard electrode potential (E0) and slope factor. Owing to the sharp rise in pH at the titration endpoint (pH 3.2-10.8), data obtained in this region are subject to significant error and were therefore excluded from the calibration analysis. A pKw value of 13.78 was taken from the literature (Baes, C. F.; Mesmer, R. E. The Hydrolysis of Cations; Wiley: New York, 1976).
ICP standards of calcium, strontium, and barium in dilute HNO3 were employed in the titrations. The exact amount of HNO3 was determined by potentiometric titration of each metal solution (1 mL), diluted to a known volume with H2O, with standardized KOH to pH ˜7; under these conditions, no precipitation of metal hydroxide species was observed. The data were analyzed using a Gran plot (Gran, G. Analyst 1952, 77, 661-671). Stability constants were measured for the alkaline earth complexes of macropa^2− and macropaquin^2− by adding standardized KOH to a solution (20 mL) containing ligand (0.02 mmol), metal (0.02 mmol), 1 M KCl (1.9 mmol), and a portion of 0.1 M HCl sufficient to bring the total acid content (HCl+HNO3) to 0.1 mmol. The titration method employed either a 0.1 mV/min or 0.2 mV/min drift limit with a maximum wait time of 300 seconds between addition of base and measurement. […] Data points (˜30-90) obtained over the pH ranges of 2.5-10.5 (Ba-macropa), 2.8-10.5 (Sr-macropa), 4.0-10.5 (Ca-macropa), 2.7-11.3 (Ba-macropaquin), and 4.0-11.3 (Sr- and Ca-macropaquin) were included in the refinements. These pH ranges reflect the portion of the titration curves in which metal binding is occurring. Using the protonation constants measured for each ligand, the stability constants (Equations 2-4, below) were calculated from the average of at least 3 independent titrations using appropriate software. Proton concentration was admitted as a refineable parameter. Ligand (L) concentration was taken as the averaged value obtained from the refinements of ligand-only titrations. The errors given for the stability constants correspond to one standard deviation.
The alkaline earth stability constants for macroquin-SO3^4− were determined using a system in which each ligand titration was paired with a ligand-metal titration. These pairwise titrations permitted the ligand concentration for the metal-ligand titrations to be known with reasonable certainty from the refinement of the ligand-only titrations. Immediately following a titration of the free ligand with HCl, metal ion (0.013 mmol) was added and the solution was equilibrated under Ar for 15 minutes before the addition of standardized KOH. The same titration method was employed as described above for macropa^2− and macropaquin^2−. […]

[2] = cited from earlier work
[3] = literature values, cited from earlier work; for log Ka1 / log Ka2 / log Ka3 / log Ka4: I = 0.1M KCl (footnotes b, c, d)
[4] = cited from earlier work; remark: listed apart in the source
[5] = Recovery and reuse of macropa for BaSO4 dissolution
Description: The capacity for recovery and reuse of macropa post-BaSO4 dissolution was assessed qualitatively. FIG. 7 schematically depicts a process for ligand recovery and reuse. A solution of macropa-dissolved BaSO4 was acidified to release the Ba^2+ from the ligand as BaSO4. After filtration of the precipitated BaSO4 and basification of the solution, the recovered ligand was successfully reused for another cycle of BaSO4 dissolution. More specifically, a sample of macropa-dissolved BaSO4 (9.66 mM macropa, 8.74 mM Ba(NO3)2, 26.04 mM Na2SO4) was acidified to pH 1 with concentrated HCl to protonate the ligand, inducing Ba^2+ decomplexation and precipitation as BaSO4. The macropa solution was isolated by filtration, basified to pH 8 with 2 M NaOH, and combined with another portion of BaSO4. Within 40 minutes, no visible precipitate remained in the vial, signaling that the recycled macropa dissolved all the BaSO4.
In other experiments, an initial solution of macropa-dissolved BaSO4 was prepared by stirring at 450 RPM a suspension containing BaSO4 (8.74 mM Ba(NO3)2; 26.04 mM Na2SO4), macropa (9.66 mM), and 2M NaOH (35 μL) in 1M NaHCO3 (326 μL). The final volume was 1035 μL and the pH was 8. […] The solution was adjusted to pH 1 (by litmus paper) by adding concentrated HCl (3 drops). The resultant suspension was stirred for 10 minutes and then filtered through a nylon syringe filter (0.22 μm). The syringe filter was rinsed with 0.1 M HCl (2×100 μL) to facilitate full recovery of the ligand. The pH of the filtrate was carefully adjusted back to pH 8 (by litmus paper) with 2 M NaOH. To this recovered solution of macropa was added another portion of BaSO4 (0.009 mmol BaNO3, 0.027 mmol Na2SO4). The suspension was stirred at 450 RPM and RT. The dissolution of BaSO4 was monitored visually until all of the BaSO4 was dissolved, marking the completion of a full cycle of ligand recovery and reuse. Another cycle was then initiated via the addition of concentrated HCl to the solution. A total of five cycles were performed and the time to full dissolution of BaSO4 was recorded. […] The precipitate may be attributed to a small amount of BaSO4 that remains undissolved as a consequence of ligand loss over time, which occurs because aliquots of the solution are removed to assess the pH during the recovery and reuse process.

[6] = literature values (footnotes b, c)
[7] = bracketed literature value, I = 0.1M KNO3 (footnote e)

log KCaHL [1]	log KCaL [1]	SMILES	pCa (−log [M^2+]free) [1]	log K′Ca (conditional stability constant) [1]	log KSrHL [2, 6]	log Ka1 [3]	log Ka2 [3]	log Ka3 [3]	log Ka4 [3]	log KCaHL [4, 6]	time to complete dissolution of BaSO4 (initial solution) ([5]; 9.66 mM macropa, 8.74 mM Ba(NO3)2, 26.04 mM Na2SO4, pH 8) [min]	time until no visible BaSO4 precipitate remained with recycled ligand ([5]; first reuse, pH 8) [min]	efficacy on reuse four more times ([5]; ligand recovered and reused)	BaSO4 dissolution during the 4th and 5th cycles ([5]; recovery and reuse cycles)	log KSrHL [2, 7]	log KSrL [2, 7]	log Ka5 ([3]; I = 0.1M KCl (footnotes c, d))	log KCaL [4, 7]
8.60(4)	6.04(8)	O=S(=O)(O)c1ccc(O)c2nc(CN3CCOCCOCCN(Cc4ccc5c(S(=O)(=O)O)ccc(O)c5n4)CCOCCOCC3)ccc12 [macroquin-SO3, 2,2′-((1,4,10,13-tetraoxa-7,16-diazacyclooctadecane-7,16-diyl)bis(methylene))bis(8-hydroxyquinoline-5-sulfonic acid)]	6.01	3.19														
		O=C(O)CN1CCN(CC(=O)O)CCN(CC(=O)O)CCN(CC(=O)O)CC1 [DOTA, reference compound]	11.29	10.34	4.52	11.14	9.69	4.85	3.95	3.60								
8.59(2)	5.90(4)	O=C(O)c1cccc(CN2CCOCCOCCN(Cc3ccc4cccc(O)c4n3)CCOCCOCC2)n1 [macropaquin, 6-((16-((8-hydroxyquinolin-2-yl)methyl)-1,4,10,13-tetraoxa-7,16-diazacyclooctadecan-7-yl)methyl)picolinic acid]	6.04	3.94														

SMILES	log KCaHL [1]	log KCaL [1]	pCa (−log [M^2+]free) [1]	log K′Ca (conditional stability constant) [1]	log KSrHL [2, 6]	log Ka1 [3]	log Ka2 [3]	log Ka3 [3]	log Ka4 [3]	log KCaHL [4, 6]	time to complete dissolution of BaSO4 (initial solution) ([5]; 9.66 mM macropa, 8.74 mM Ba(NO3)2, 26.04 mM Na2SO4, pH 8) [min]	time until no visible BaSO4 precipitate remained with recycled ligand ([5]; first reuse, pH 8) [min]	efficacy on reuse four more times ([5]; ligand recovered and reused)	BaSO4 dissolution during the 4th and 5th cycles ([5]; recovery and reuse cycles)	log KSrHL [2, 7]	log KSrL [2, 7]	log Ka5 ([3]; I = 0.1M KCl (footnotes c, d))	log KCaL [4, 7]
O=C(O)c1cccc(CN2CCOCCOCCN(Cc3cccc(C(=O)O)n3)CCOCCOCC2)n1 [macropa, 6,6-((1,4,10,13-tetraoxa-7,16-diazacyclooctadecane-7,16-diyl)bis(methylene))dipicolinic acid]		5.79(1)	6.54	5.42		(7.41)^d	(6.85)	(3.32)	(2.36)		17	≤ 40	negligible loss in efficacy or speed of dissolution	dissolution of most of the BaSO4 was rapidly achieved within the first hour	[4.16]	[9.57]	(1.69)	[5.25]^e
